Measurements: patent publication US9458172B2, “Pyridinyl and pyrimidinyl sulfoxide and sulfone derivatives” (priority 2012, dated 2016)
Where two headings read alike, the source gives them in different places.

Columns and labels:
NAMPT = NAMPT (Homo sapiens (Human), UniProt P43490); assay: Biochemical Inhibition Assay (NAMPT enzymatic reaction, NMN quantified by mass spectrometry); conditions: 33 nM recombinant His-tagged NAMPT, 1 μM NAM, 30 min at rt
Summary of the method: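 His-tagged human NAMPT from E. coli preincubated 15 min at rt with compound in 50 mM Hepes pH 7.5, 50 mM NaCl, 5 mM MgCl2, 1 mM THP, then reacted 30 min at rt with 1 μM NAM, […] PRPP, 2.5 mM ATP. NMN quantified by RapidFire mass spectrometry, normalized to L-Cystathionine, background subtracted.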

A2780 cells = assay: In-Vitro Cell Proliferation Assay (SRB)
[1] = Homo sapiens, A2780, 72 h, read-out: Cell Proliferation (IC50)
[2] = Homo sapiens, A2780, 72 h, read-out: Cell Proliferation (IC50), A2780 cells, 72 h, sulforhodamine B

NAMPT, sequence (P43490 whole entry): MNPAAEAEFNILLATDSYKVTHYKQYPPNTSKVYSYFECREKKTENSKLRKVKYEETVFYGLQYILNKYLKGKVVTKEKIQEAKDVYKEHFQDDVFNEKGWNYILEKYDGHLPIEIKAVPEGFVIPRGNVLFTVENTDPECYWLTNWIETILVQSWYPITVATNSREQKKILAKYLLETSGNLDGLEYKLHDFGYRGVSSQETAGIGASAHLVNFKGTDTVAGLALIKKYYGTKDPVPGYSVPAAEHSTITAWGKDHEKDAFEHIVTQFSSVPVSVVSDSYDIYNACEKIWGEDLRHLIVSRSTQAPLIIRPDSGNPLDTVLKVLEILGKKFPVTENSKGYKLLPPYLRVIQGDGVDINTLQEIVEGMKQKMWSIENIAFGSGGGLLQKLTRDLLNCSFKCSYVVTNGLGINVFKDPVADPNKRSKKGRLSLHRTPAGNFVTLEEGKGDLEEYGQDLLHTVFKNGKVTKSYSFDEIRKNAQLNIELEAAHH

IC50 (NAMPT) [nM] | IC50 (A2780 cells; [1]) [nM] | IC50 (A2780 cells; [2]) [nM] | IC50 (A2780 cells; read-out: Cell Proliferation (IC50), A2780 cells, 72 h, sulforhodamine B) [nM] | SMILES
11.7 | 7.59 |  |  | O=C(NCc1ccc([S+]([O-])c2cccc(C(F)(F)F)c2)cn1)N1Cc2ccncc2C1 (centres unmarked) [Example 120, N-[[5-[3-(trifluoromethyl)phenyl]sulfinyl-2-pyridyl]methyl]-1,3-dihydropyrrolo[3,4-c]pyridine-2-carboxamide]
68.2 | 2000 |  |  | COCC(=O)N1CCC(S(=O)(=O)c2ccc(CNC(=O)N3Cc4ccncc4C3)nc2)CC1 [Example 121, N-[[5-[[1-(2-methoxyacetyl)-4-piperidyl]sulfonyl]-2-pyridyl]methyl]-1,3-dihydropyrrolo[3,4-c]pyridine-2-carboxamide]
103 | 46.3 |  |  | COCC(=O)N1CCC(S(=O)(=O)c2ccc(CNC(=O)c3cc4ccncc4o3)nc2)CC1 [Example 122, N-[[5-[[1-(2-methoxyacetyl)-4-piperidyl]sulfonyl]-2-pyridyl]methyl]furo[2,3-c]pyridine-2-carboxamide]
21.8 | 19.1 |  |  | O=C(NCc1ccc(S(=O)(=O)c2cccc(N3CCOCC3)c2)cn1)c1cc2ccncc2o1 [Example 123, N-[[5-(3-morpholinophenyl)sulfonyl-2-pyridyl]methyl]furo[2,3-c]pyridine-2-carboxamide]
13 | 18.9 |  |  | CS(=O)(=O)c1cccc(S(=O)(=O)c2ccc(CNC(=O)c3cc4ccncc4o3)nc2)c1 [Example 124, N-[[5-(3-methylsulfonylphenyl)sulfonyl-2-pyridyl]methyl]furo[2,3-c]pyridine-2-carboxamide]
14 | 10.2 |  |  | O=C(NCc1ccc(S(=O)(=O)c2ccc(N3CCOCC3)nc2)cn1)N1Cc2ccncc2C1 [Example 125, N-[[5-[(6-morpholino-3-pyridyl)sulfonyl]-2-pyridyl]methyl]-1,3-dihydropyrrolo[3,4-c]pyridine-2-carboxamide]
68.4 | 56 |  |  | O=C(NCc1ccc(S(=O)(=O)N2CCN(C3CCOCC3)CC2)cn1)N1Cc2ccncc2C1 [Example 126, N-[[5-(4-tetrahydropyran-4-ylpiperazin-1-yl)sulfonyl-2-pyridyl]methyl]-1,3-dihydropyrrolo[3,4-c]pyridine-2-carboxamide]
49.2 | 31.3 |  |  | O=C(NCc1ccc(S(=O)(=O)N2CCN(C3CCOCC3)CC2)cn1)c1cc2ccncc2o1 [Example 127, N-[[5-(4-tetrahydropyran-4-ylpiperazin-1-yl)sulfonyl-2-pyridyl]methyl]furo[2,3-c]pyridine-2-carboxamide]
73 | 25.4 |  |  | O=C(NCc1ccc(S(=O)(=O)C2CCN(C3CCOC3)CC2)cn1)c1cc2ccncc2o1 (centres unmarked) [Example 128, N-[[5-[(1-tetrahydrofuran-3-yl-4-piperidyl)sulfonyl]-2-pyridyl]methyl]furo[2,3-c]pyridine-2-carboxamide]
32.7 | 36.3 |  |  | O=C(NCc1ccc(S(=O)(=O)C2CCN(C3CCOC3)CC2)cn1)N1Cc2ccncc2C1 (centres unmarked) [Example 129, N-[[5-[(1-tetrahydrofuran-3-yl-4-piperidyl)sulfonyl]-2-pyridyl]methyl]-1,3-dihydropyrrolo[3,4-c]pyridine-2-carboxamide]
39.8 | 50.7 |  |  | CCCC(=O)N1CCC(S(=O)(=O)c2ccc(CNC(=O)c3cc4ccncc4o3)nc2)CC1 [Example 130, N-[[5-[(1-butanoyl-4-piperidyl)sulfonyl]-2-pyridyl]methyl]furo[2,3-c]pyridine-2-carboxamide]
5.24 |  | 24.4 |  | O=C(NCc1ccc(S(=O)(=O)C2CCN(CC(F)(F)F)CC2)cn1)c1cc2ccncc2o1 [Example 131, N-[[5-[[1-(2,2,2-trifluoroethyl)-4-piperidyl]sulfonyl]-2-pyridyl]methyl]furo[2,3-c]pyridine-2-carboxamide]
16.8 | 446 |  |  | CS(=O)(=O)c1cccc(S(=O)(=O)c2ccc(CNC(=O)c3cnc4[nH]ncc4c3)nc2)c1 [Example 134, N-[[5-(3-methylsulfonylphenyl)sulfonyl-2-pyridyl]methyl]-1H-pyrazolo[3,4-b]pyridine-5-carboxamide]
18 |  |  | 34.4 | CN1CCN(c2ccc(S(=O)(=O)c3ccc(CNC(=O)c4cc5ccncc5o4)nc3)cn2)CC1 [Example 135, N-[[5-[[6-(4-methylpiperazin-1-yl)-3-pyridyl]sulfonyl]-2-pyridyl]methyl]furo[2,3-c]pyridine-2-carboxamide]
56.8 | 81.6 |  |  | CS(=O)(=O)c1cccc(S(=O)(=O)c2ccc(CNC(=O)c3ccc4nccn4c3)nc2)c1 [Example 137, N-[[5-(3-methylsulfonylphenyl)sulfonyl-2-pyridyl]methyl]imidazo[1,2-a]pyridine-6-carboxamide]
9.45 | 2.84 |  |  | O=C(NCc1ccc(S(=O)(=O)c2cnc(N3CCCC3)s2)cn1)c1cc2ccncc2o1 [Example 138, N-[[5-(2-pyrrolidin-1-ylthiazol-5-yl)sulfonyl-2-pyridyl]methyl]furo[2,3-c]pyridine-2-carboxamide]

IC50 (NAMPT) [nM] | IC50 (A2780 cells; [1]) [nM] | IC50 (A2780 cells; [2]) [nM] | IC50 (A2780 cells; read-out: Cell Proliferation (IC50), A2780 cells, 72 h, sulforhodamine B) [nM] | SMILES
14.7 | 3.11 |  |  | COc1cc(OC)cc(S(=O)(=O)c2ccc(CNC(=O)c3cnc4[nH]ncc4c3)nc2)c1 [Example 139, N-[[5-(3,5-dimethoxyphenyl)sulfonyl-2-pyridyl]methyl]-1H-pyrazolo[3,4-b]pyridine-5-carboxamide]
207 | 71.7 |  |  | O=C(NCc1ccc(S(=O)(=O)N2CCN(C3COC3)CC2)cn1)c1cc2ccncc2o1 [Example 141, N-[[5-[4-(oxetan-3-yl)piperazin-1-yl]sulfonyl-2-pyridyl]methyl]furo[2,3-c]pyridine-2-carboxamide]
220 | 255 |  |  | O=C(NCc1ccc(S(=O)(=O)N2CCN(C3COC3)CC2)cn1)N1Cc2ccncc2C1 [Example 142, N-[[5-[4-(oxetan-3-yl)piperazin-1-yl]sulfonyl-2-pyridyl]methyl]-1,3-dihydropyrrolo[3,4-c]pyridine-2-carboxamide]
111 | 61.3 |  |  | O=C(NCc1ccc(S(=O)(=O)C2CCN(CC(F)(F)F)CC2)cn1)N1Cc2ccncc2C1 [Example 143, N-[[5-[[1-(2,2,2-trifluoroethyl)-4-piperidyl]sulfonyl]-2-pyridyl)methyl]-1,3-dihydropyrrolo[3,4-c]pyridine-2-carboxamide]
10.1 | 2.87 |  |  | CCN(C)c1ncc(S(=O)(=O)c2ccc(CNC(=O)c3ccc4nccn4c3)nc2)s1 [Example 145, N-[[5-[2-[ethyl(methyl)amino]thiazol-5-yl]sulfonyl-2-pyridyl]methyl]imidazo[1,2-a]pyridine-6-carboxamide]
6.83 | 5.97 |  |  | CCN(C)c1ncc(S(=O)(=O)c2ccc(CNC(=O)N3Cc4ccncc4C3)nc2)s1 [Example 147, N-[[5-[2-[ethyl(methyl)amino]thiazol-5-yl]sulfonyl-2-pyridyl]methyl]-1,3-dihydropyrrolo[3,4-c]pyridine-2-carboxamide]
75.7 | 85.2 |  |  | O=C(NCc1ccc(S(=O)(=O)N2CCC(N3CCCC3)CC2)cn1)N1Cc2ccncc2C1 [Example 148, N-[[5-[(4-pyrrolidin-1-yl-1-piperidyl)sulfonyl]-2-pyridyl]methyl]-1,3-dihydropyrrolo[3,4-c]pyridine-2-carboxamide]
619 |  | 1860 |  | O=C(NCc1ccc(S(=O)(=O)N2CCC(N3CCCC3)CC2)cn1)c1cnc2[nH]ncc2c1 [Example 149, N-[[5-[(4-pyrrolidin-1-yl-1-piperidyl)sulfonyl]-2-pyridyl]methyl]-1H-pyrazolo[3,4-b]pyridine-5-carboxamide]
99.2 | 678 |  |  | Nc1ccc(S(=O)(=O)c2ccc(CNC(=O)N3Cc4ccncc4C3)nc2)cn1 [Example 150, N-[[5-[(6-amino-3-pyridyl)sulfonyl]-2-pyridyl]methyl]-1,3-dihydropyrrolo[3,4-c]pyridine-2-carboxamide]
55.2 | 54.6 |  |  | N#Cc1cccc(S(=O)(=O)c2ccc(CNC(=O)c3cc4ccncc4o3)nc2)c1 [Example 151, N-[[5-(3-cyanophenyl)sulfonyl-2-pyridyl]methyl]furo[2,3-c]pyridine-2-carboxamide]
247 | 106 |  |  | O=C(NCc1ccc(S(=O)(=O)C2CCN(CC(F)(F)F)CC2)cn1)c1ccc2nccn2c1 [Example 152, N-[[5-[[1-(2,2,2-trifluoroethyl)-4-piperidyl]sulfonyl]-2-pyridyl]methyl]imidazo[1,2-a]pyridine-6-carboxamide]
1740 | 1340 |  |  | O=C(NCc1ccc(S(=O)(=O)C2CCN(CC(F)(F)F)CC2)cn1)c1cnc2[nH]ncc2c1 [Example 153, N-[[5-[[1-(2,2,2-trifluoroethyl)-4-piperidyl]sulfonyl]-2-pyridyl]methyl]-1H-pyrazolo[3,4-b]pyridine-5-carboxamide]
39.8 | 46.5 |  |  | O=C(NCc1ccc(S(=O)(=O)c2cccc(N3CCOCC3)c2)cn1)c1ccc2nccn2c1 [Example 154, N-[[5-(3-morpholinophenyl)sulfonyl-2-pyridyl]methyl]imidazo[1,2-a]pyridine-6-carboxamide]
74 | 89.7 |  |  | N#Cc1cccc(S(=O)(=O)c2ccc(CNC(=O)c3ccc4nccn4c3)nc2)c1 [Example 155, N-[[5-(3-cyanophenyl)sulfonyl-2-pyridyl]methyl]imidazo[1,2-a]pyridine-6-carboxamide]
452 | 940 |  |  | N#Cc1cccc(S(=O)(=O)c2ccc(CNC(=O)c3cnc4[nH]ncc4c3)nc2)c1 [Example 156, N-[[5-(3-cyanophenyl)sulfonyl-2-pyridyl]methyl]-1H-pyrazolo[3,4-b]pyridine-5-carboxamide]
